Data on 7 compounds can be found in patent US8871751B2, “Compositions and methods relating to nuclear hormone and steroid hormone receptors including inhibitors of estrogen receptor alpha-mediated gene expression and inhibition of breast cancer” (The Board of Trustees of the University of Illinois, priority 2008, dated 2014).

Several values for one entry are separate records, joined by “and”; a condition that tells them apart may be missing. Identical values can stand only once. Like-named read-outs stand apart in the source and are kept apart here.

Assay [1] addresses T1, human PR-B binding to flPRE (Homo sapiens, UniProt P06401).
T1 construct: FLAG; made in house
T1 sequence (P06401 1-933): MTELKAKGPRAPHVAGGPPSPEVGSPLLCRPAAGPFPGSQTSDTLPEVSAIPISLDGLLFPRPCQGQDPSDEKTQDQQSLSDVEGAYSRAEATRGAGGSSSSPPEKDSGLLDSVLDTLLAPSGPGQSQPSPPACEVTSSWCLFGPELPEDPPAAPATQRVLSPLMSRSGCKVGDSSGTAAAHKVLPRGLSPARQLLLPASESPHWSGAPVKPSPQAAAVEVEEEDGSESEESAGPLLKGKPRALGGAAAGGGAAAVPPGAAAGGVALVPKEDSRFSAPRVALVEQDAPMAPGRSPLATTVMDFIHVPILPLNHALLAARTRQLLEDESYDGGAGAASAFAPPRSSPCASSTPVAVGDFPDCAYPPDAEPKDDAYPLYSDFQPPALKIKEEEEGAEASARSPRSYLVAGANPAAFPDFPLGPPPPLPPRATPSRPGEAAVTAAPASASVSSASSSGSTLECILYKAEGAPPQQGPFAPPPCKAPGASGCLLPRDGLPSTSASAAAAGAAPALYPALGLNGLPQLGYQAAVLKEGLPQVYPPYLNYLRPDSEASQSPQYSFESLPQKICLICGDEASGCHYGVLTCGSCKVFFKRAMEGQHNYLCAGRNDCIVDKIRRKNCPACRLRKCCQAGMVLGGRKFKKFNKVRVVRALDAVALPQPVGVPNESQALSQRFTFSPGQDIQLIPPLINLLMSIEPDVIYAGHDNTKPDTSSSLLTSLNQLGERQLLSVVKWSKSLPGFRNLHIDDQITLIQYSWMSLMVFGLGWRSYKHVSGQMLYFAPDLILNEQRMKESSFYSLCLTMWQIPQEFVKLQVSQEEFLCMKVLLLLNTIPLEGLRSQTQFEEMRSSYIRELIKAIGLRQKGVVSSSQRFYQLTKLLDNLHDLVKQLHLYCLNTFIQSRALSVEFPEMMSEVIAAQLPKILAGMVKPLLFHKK
The experiment in a line: FAMA: inhibition of PR binding to flcPRE. The following applies: binding to HRE, 5 concentrations 0.5-10 μM, sequential method. The protocol:
Dose response curves for selected compounds were carried out as described for the HTS screen except that each well contained the indicated concentration of test compound. PR assays were carried out in the same buffer used for ERα assays and contained 1 nM flcPRE and 11 nM PR-B and 100 nM progesterone. The buffer used for AR was similar but also contained 5 μM ZnCl, 5 mM NaF, 0.6 μM CHAPS and 100 nM dihydrotestosterone. AR assays contained 1 nM flcARE and 50 nM full-length wild-type AR.
Specificity was evaluated in dose-response studies by quantitative FAMA using purified full-length human PR binding to a fluorescein-labeled progesterone/glucocorticoid response element (flPRE) and full-length human androgen receptor (AR) binding to a fluorescein-labeled androgen response element (flARE).

For another assay, the target named is T2, AR (Homo sapiens, UniProt P10275).
T2 construct: expressed in transfected cells; host or cells: HeLa (HeLa-AR / HeLaAR)
T2 sequence (P10275 1-920): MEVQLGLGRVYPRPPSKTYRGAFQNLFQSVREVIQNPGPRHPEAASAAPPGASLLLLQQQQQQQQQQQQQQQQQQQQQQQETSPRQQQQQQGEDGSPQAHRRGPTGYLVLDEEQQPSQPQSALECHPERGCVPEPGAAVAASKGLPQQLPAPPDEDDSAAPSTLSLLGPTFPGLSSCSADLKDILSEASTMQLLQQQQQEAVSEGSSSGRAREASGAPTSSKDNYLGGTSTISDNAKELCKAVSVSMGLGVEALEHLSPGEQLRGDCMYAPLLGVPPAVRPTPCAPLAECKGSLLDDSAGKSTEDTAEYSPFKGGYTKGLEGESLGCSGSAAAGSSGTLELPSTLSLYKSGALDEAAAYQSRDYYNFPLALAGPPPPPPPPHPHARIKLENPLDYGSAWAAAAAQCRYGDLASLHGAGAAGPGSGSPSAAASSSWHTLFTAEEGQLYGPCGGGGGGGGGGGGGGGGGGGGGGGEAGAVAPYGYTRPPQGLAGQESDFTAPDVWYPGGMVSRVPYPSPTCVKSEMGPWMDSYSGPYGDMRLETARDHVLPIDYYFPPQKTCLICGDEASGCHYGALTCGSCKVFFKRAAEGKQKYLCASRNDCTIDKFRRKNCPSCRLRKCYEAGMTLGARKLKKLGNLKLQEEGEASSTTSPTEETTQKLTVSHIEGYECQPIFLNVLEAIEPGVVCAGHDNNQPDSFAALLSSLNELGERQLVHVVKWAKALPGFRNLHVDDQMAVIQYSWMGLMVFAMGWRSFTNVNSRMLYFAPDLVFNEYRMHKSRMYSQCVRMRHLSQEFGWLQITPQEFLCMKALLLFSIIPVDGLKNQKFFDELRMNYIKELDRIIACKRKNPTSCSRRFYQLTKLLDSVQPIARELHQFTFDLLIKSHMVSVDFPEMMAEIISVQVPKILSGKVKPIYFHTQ
Description: AR-mediated gene expression, PSA-luciferase reporter in stable HeLa-AR cells. In kind it is cell-based. Particulars: for IC50: 24 h. The procedure: FIG. 9. Effect of some Theophylline-related compounds on AR-mediated gene expression in stable HeLa-AR cells. Assays were performed as described for ER in the legend to FIG. 4 and PR/GR in FIG. 5. The cells were incubated with 80 pM DHT and the indicated concentration of each small molecule. Luciferase activity was measured after 24 hours. The data represent the mean±SEM for 3 separate experiments at each concentration.
Reporter Gene Assays. TPSF was identified by reporter gene assays comparing the ability of ˜200 compounds structurally related to TPBM (see reference 19) to inhibit transcription of a stably transfected (ERE)3-luciferase reporter gene in T47D-KBluc breast cancer cells (20). AR was assayed in stably transfected HeLa cells and GR was assayed in stably transfected T47D cells maintained as described above. Four days before each experiment the cells were switched to medium containing CD-treated serum as described above. The HeLaAR cells were plated at 100,000 cells/well and the T47D/A1-2 and T47D-KBluc cells were plated at 200,000 cells/well in 1 ml of their respective media in 24-well plates. After 24 hours the indicated concentrations of E2, dihydrotestosterone (DHT) or dexamethasone (Dex) and DMSO vehicle, with or without TPSF, were added to each well. After 24 hours, the cells were washed once in phosphate buffered saline and lysed using 100 μl of 1× Passive Lysis Buffer (Promega, Madison Wis.). Luciferase activity was determined using BrightGlo firefly luciferase reagent from Promega (Madison, Wis.).
On the technique in general: Reporter assays use an easily measured gene product as a stand-in for the process of interest.

The mark [2] stands for this setting: HeLa-AR cells, 80 pM DHT, read-out: AR-IC50.

Consider `CN1CCC(C#N)c2ccccc21` (stereo not shown) [Compound 1529], for which, in assay [1], the IC50 is 7.5 µM.

As to `CCCSc1nc2c([nH]1)c(=O)n(C)c(=S)n2C` [Compound 95869, 1,3-Dimethyl-8-propylsulfanyl-2-thioxo-1,2,3,7-tetrahydro-purin-6-one], the “AR at 10 μM” value on AR was found to be 90. The IC50 on AR (setting [2]) was determined as 1 µM.

On to `Cn1c(=O)c2[nH]c(SC3CCCCC3)nc2n(C)c1=S` [Compound 95899, 8-Cyclohexylsulfanyl-1,3-dimethyl-2-thioxo-1,2,3,7-tetrahydro-purin-6-one], for which, on AR, the “AR at 10 μM” value is recorded as 88. For the same compound, the IC50 on AR (setting [2]) is 2.5 µM.

The compound `Cn1c(=O)c2nc(CSCc3ccccc3)[nH]c2n(C)c1=O` [Compound 95910, 8-Benzylsulfanylmethyl-1,3-dimethyl-3,7-dihydro-purine-2,6-dione] displayed an IC50 in assay [1] of 9.5 µM.

Regarding `Cn1c(=O)c2[nH]c(C3CC4CCC3C4)nc2n(C)c1=O` (stereo not shown) [Compound 101807, 8-Bicyclo[2.2.1]hept-2-yl-1,3-dimethyl-3,7-dihydro-purine-2,6-dione], at AR, the “AR at 10 μM” value amounted to 50. The IC50 on AR (setting [2]) was determined as 5 µM.

`CN(C)CCCn1c2c3ccccc3ccc2c2oc(=O)c3ccccc3c21` [Compound 638432] yielded an IC50 in assay [1] of 7.4 µM.

Turning to `Cn1c(=S)c2[nH]c(SCCCC(=O)c3ccc(F)cc3)nc2n(C)c1=O` [TPSF, Butyrophenone, p-fluoro-4-(1,2,3,6,-tetrahydro-1,3-dimethyl-2-oxo-6-thionopurin-8-ylthio)], the IC50 at AR (stably transfected HeLa cells, 1 μM DHT, read-out: IC50 for inhibition of AR gene expression (PSA-Luc)) was 33 µM and 34 µM.

The IC50 is the midpoint of a concentration-inhibition curve.
